Test results reported in patent EP0002836A1, “Acylhydrocarbylaminoalcanecarboxylic acids, their preparation and their use, and pharmaceutical compositions containing them” (Byk Gulden Lomberg Chemische Fabrik GmbH, priority 1977, dated 1979).

Tests used:
[1] = tested on: Gallesekretion narkotisierter Ratten; assay: Bile secretion (choleresis) of anaesthetised rats after intraduodenal administration; format: in vivo, Ratte; conditions: for ED50: Rattus norvegicus, 0.5 h, Ratte i.d., dose that raises bile secretion (fluid volume, 30-min fraction) by maximally 50 %; for TQ [LD50/ED50]: LD50 (Maus, i.p.) / ED50 Gallesekretion (Ratte i.d.), for Lfd.Nr. 1 the cited p.o. LD50
Excerpt: (§1) In Tabelle II werden Untersuchungen der Gallesekretion (Cholerese) von narkotisierten Ratten nach intraduodenaler Applikation (ED50) und die letale Wirkung an der Maus (LD50) nach intraperitonealer Applikation von Vertretern der erfindungsgemäßen Verbindungen sowie der therapeutische Quotient (TQ = LD50/ED50) wiedergegeben.
(§2) Einfluß auf die Pankreas- und Gallesekretion der narkotisierten Ratte Versuchsdurchführung:
(§3) Männliche Sprague-Dawley-Ratten (250 - 300 ^g Körpergewicht) werden mit 1,2 g/kg Urethan i.m. narkotisiert. Dann wird die Bauchhöhle medial geöffnet, der Ductus choledochus kurz oberhalb seiner Mündung in das Duodenum sowie nahe der Leberpforte ligiert, beide Gangabschnitte werden leberwärts katheterisiert.
(§4) Da bei der Ratte alle Pankreaskanäle in den mittleren Abschnitt des Ductus choledochus munden,lassen sich auf diese Weise aus dem distalen (ligierten) Gangabschnitt das Pankreassekret und aus dem proximalen Teil des Ductus choledochus die Galle getrennt ableiten.
(§5) Die sezernierten Mengen an Pankreas- und Gallensaft werden in 30 min. Abständen während 2 Stunden vor bis 3 Stunden nach der intraduodenalen ([…]) Verabreichung der zu prüfenden Verbindungen (verabreichtes Flüssigkeitsvolumen 5 ml/kg) gemessen.
(§6) Die Körpertemperatur der Tiere wird mittels Heizkissen und Bestrahlung auf 36 - 38°C gehalten; die Temperaturkontrolle erfolgt rectal.
(§7) Auswertung: • Die Flüssigkeitsvolumina der 30-min.-Fraktionen nach der Substanzgabe werden jeweils auf die vor der Substanzapplikation ausgeschiedene Galle- bzw. Pankreassaftmenge (= 100 %, Mittelwert aus den beiden letzten Messungen) bezogen. Die maximale prozentuale Steigerung der Pankreas- bzw. Gallesekretion wird in Abhängigkeit von der Dosis dargestellt und daraus die ED50 durch Interpolation ermittelt.

Maus = assay: Acute toxicity in mice, intraperitoneal; format: in vivo; conditions: i.p., female NMRI mice, 14 days observation
Excerpt: (§8) Die Toxizitätsuntersuchungen werden an weiblichen NMRI-Mäusen (Körpergewicht 22 - 26 g) durchgeführt. Die Tiere (5 Tiere pro Dosis) erhalten Futter und Wasser ad libitum. Verschiedene Dosierungen der Substanzen werden intraperitoneal verabreicht. Die Beobachtungsdauer beträgt 14 Tage. Die DL50, d.h. die Dosis, bei der 50 % der Tiere sterben, wird aus der Dosiswirkungskurve ermittelt.

[2] = tested on: Pankreassekretion narkotisierter Ratten; assay: Pancreatic secretion of anaesthetised rats after intraduodenal administration; format: in vivo, Ratte; conditions: for ED50: Rattus norvegicus, 0.5 h, Ratte, i.d., dose that raises pancreatic secretion (fluid volume, 30-min fraction) by maximally 50 %; for TQ [LD50/ED50]: LD50 (Maus, i.p.) / ED50 Pankreassekretion (Ratte, i.d.), for Lfd.Nr. 1 the cited p.o. LD50
Excerpt: as §1, with “I” for “II”, “Pankreassekretion” for “Gallesekretion (Cholerese)”, “(^TQ” for “(TQ”
as §2, §3, §4, §5, §6, §7

[3] = tested on: CCl4-lebergeschädigte Ratten; assay: Antihepatotoxic effect: hexobarbital sleeping time of rats after CCl4 liver damage; format: in vivo, Ratte; conditions: for TQ [LD50/ED50]: LD50 (Maus i.p.) / ED50 antihepatotoxischer Effekt (Ratte, p.o.), for Lfd.Nr. 1 the cited p.o. LD50; for ED50: Rattus norvegicus, po, Ratte, p.o., dose that shortens hexobarbital narcosis of CCl4-liver-damaged rats by 50 %, sodium salts in aqueous solution, given 1 h before CCl4, read-out: Antihepatotoxischer Effekt ED50
Excerpt: In Tabelle III werden Untersuchungen der antihepatotoxischen Wirkung (ED50) erfindungsgemäßer Verbindungen nach oraler Applikation an wachen Ratten und die letale Wirkung nach intraperitonealer Applikation an der Maus (LD50) sowie der therapeutische Quotient (TQ = LD50/ED50) wiedergegeben.
Prüfung auf antihepatotoxische Wirkung
Einfluß auf die Hexobarbitalschlafdauer der Ratte nach CCl4-Leberschädi- gung
Versuchsdurchführung: • In Anlehnung an VOGEL et al. [Arzneim.Forsch. 25(1975)82] wird bei nüchternen weiblichen Sprague-Dawley-Ratten (190 *10 g Körpergewicht, 10 Tiere/Dosis pro Versuchsansatz) durch orale Verabreichung von Tetrachlorkohlenstoff ([…] CC14 in 2,5 ml/kg Olivenöl) ein Leberzellenschaden erzeugt, dessen Ausmaß an der Verlängerung der Hexobarbitalnatrium-Schlafdauer (50mg/ml/kg i.v.;Schwanzvene, Injektionsdauer 45 - 60 sec.) 47 Stunden nach der CC14-Gabe bestimmt wird. Die zu prüfenden Verbindungen werden eine Stunde vor der CC14-Gabe oral in einem Flüssigkeitsvolumen von 10 ml/kg verabreicht.
Auswertung: • Der antihepatotoxische Effekt der zu prüfenden Verbindungen (NatriumSalze in wäßriger Lösung) wird an der prozentualen Verkürzung der durch die CC14-Leberzellschädigung bedingten Schlafdauerverlängerung bei den behandelten Gruppen gegenüber der Schlafdauerverlängerung der CC14-Kontrollgruppe (= 100 %) gemessen. Die ED50 wurde durch Interpolation aus der Dosis-Wirkungskurve ermittelt.

[4] = Acute toxicity in mice, intraperitoneal; format: in vivo; conditions: mouse, in vivo, ip; Maus, i.p.; female NMRI mice, 14 days observation; read-out: Toxizität LD50
Excerpt: as §8

SMILES	ED50 ([1]; intraduodenal)	Toxizität LD50 (Maus)	ED50 ([2]; intraduodenal)	TQ [LD50/ED50] [3]	ED50 [3]	LD50 at 336 h [4]	TQ [LD50/ED50] [1]	ED50 [1]	TQ [LD50/ED50] [2]	ED50 [2]	TQ [LD50/ED50] ([2]; listed as 1)
C#CC1(N(CCCC(=O)O)C(=O)c2ccc(Cl)cc2)CCCCC1 [Beispiel 5]	6 mg/kg										
CC(C)(C)CC(C)(C)N(CCCC(=O)O)C(=O)c1ccc(F)cc1 [Beispiel 16]		400 mg/kg	~10 mg/kg								
CC(C)(C)N(CCCC(=O)O)C(=O)c1ccc(Cl)cc1 [Lfd. Nr. 2, N-p-Chlorbenzoyl-4-(tert.-butylamino)-buttersäure]				> 10	100 mg/kg	> 1000 mg/kg	> 40	25 mg/kg			
C#CC(C)(C)N(CCCC(=O)O)C(=O)c1ccc(Cl)cc1 [Lfd. Nr. 3, N-p-Chlorbenzoyl-4-[(2-methyl-3-butin-2-yl)-amino]-buttersäure]						> 1000 mg/kg			»100	10 mg/kg	
C#CC(CC)(CC)N(CCCC(=O)O)C(=O)c1ccc(Cl)cc1 [Lfd. Nr. 4, N-p-Chlorbenzoyl-4-[(3-ethyl-1-pentin-3-yl)-amino]-buttersäure]				7,8	100 mg/kg	780 mg/kg	43	18 mg/kg	156	5 mg/kg	
O=C(O)CCCN(C(=O)c1ccc(Cl)cc1)C12CC3CC(CC(C3)C1)C2 [Lfd. Nr. 6, N-p-Chlorbenzoyl-4-(1-adamantyl)-aminobuttersäure]				110	10 mg/kg	1100 mg/kg	220	5 mg/kg	~220	~5 mg/kg	
CC(C)(C)CC(C)(C)N(CCCC(=O)O)C(=O)c1ccc(Cl)cc1 [Lfd. Nr. 7, N-p-Chlorbenzoyl-4-[(1.1.3.3-tetramethyl-butyl)-amino]-butter-säure]				< 3,6	> 300 mg/kg		27	40 mg/kg		35 mg/kg	31
C#CC1(N(CCCC(=O)O)C(C)=O)CCCCC1 [Lfd. Nr. 8, N-Acetyl-4-[(1-ethinyl-cyclohexyl-1)-amino]-buttersäure]						190 mg/kg	32	6 mg/kg			
CCC(C)(C)N(CCCC(=O)O)C(=O)c1ccc(Cl)cc1Cl [Lfd. Nr. 11, N-2,4-Dichlorbenzoyl-4-[(1.1-dimethyl-propyl)-amino]-butter-säure]						200 mg/kg			200	1 mg/kg	
O=C(O)CCCN(Cc1ccccc1)C(=O)c1ccc(Cl)cc1 [Lfd. Nr. 15, N-p-Chlorbenzoyl-4-benzylamino-buttersäure]				18,8	8 mg/kg	150 mg/kg			60	2.5 mg/kg	
O=C(O)CCCN(C(=O)c1ccc(Cl)cc1)C1CCCCCCC1 [Lfd. Nr. 18, N-p-Chlorbenzoyl-4-cyclooctylamino-buttersäure]						350 mg/kg			233	1.5 mg/kg	
